Laboratory results: patent US20240325319A1, “INHIBITORS OF AMYLOID BETA OLIGOMERIZATION AND THERAPEUTIC USES THEREOF” (Northwestern University, priority 2021, published 2024)
“And” between values parts separate entries of the source, which are not always exact repeats. Equal values may be shown once. “Also recorded” adds a separate entry of the source.

Key:
cathepsin L = cathepsin L (Homo sapiens, UniProt P07711); experiment: Purified cathepsin L enzyme activity (Z-FR-AMC to 7-AMC); format: biochemical; settings: 0.0003-150 μM NU-9
Chain of cathepsin L (P07711 114-333, species assumed): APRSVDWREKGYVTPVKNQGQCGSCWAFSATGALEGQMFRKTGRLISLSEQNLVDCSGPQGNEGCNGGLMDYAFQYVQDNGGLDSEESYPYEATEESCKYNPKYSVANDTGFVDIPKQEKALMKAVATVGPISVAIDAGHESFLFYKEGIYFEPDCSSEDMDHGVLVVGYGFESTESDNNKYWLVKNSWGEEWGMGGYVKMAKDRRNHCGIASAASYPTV
Procedure: (§1) FIG. 26. A) 0.0003-150 μM NU-9 was combined with purified cathepsin L enzyme in the presence of the cathepsin L substrate Z-FR-AMC. Cathepsin L enzyme activity was measured by the rate of 7-AMC production by fluorescence. Percent change in rate was quantified in the graph. […] B) Mature hippocampal neurons were treated with NU-9 for 30 minutes, then Magic Red was used to monitor intracellular cathepsin L activity. Cells were treated in 3 wells, and 9-22 images were analyzed per condition.
(§2) No effect of 0.0003-150 μM NU-9 was observed on the cathepsin L activity as measured by the production rate of 7-AMC from Z-FR-AMC by purified cathepsin L enzyme.

[1] = molecular target: T1, intracellular cathepsin L activity (Rattus norvegicus, UniProt P07154); experiment: Intracellular cathepsin L activity in hippocampal neurons (Magic Red); format: cell-based; settings: hippocampal neurons treated with NU-9 30 minutes
T1 construct: endogenous in cells
T1 sequence (P07154 114-334): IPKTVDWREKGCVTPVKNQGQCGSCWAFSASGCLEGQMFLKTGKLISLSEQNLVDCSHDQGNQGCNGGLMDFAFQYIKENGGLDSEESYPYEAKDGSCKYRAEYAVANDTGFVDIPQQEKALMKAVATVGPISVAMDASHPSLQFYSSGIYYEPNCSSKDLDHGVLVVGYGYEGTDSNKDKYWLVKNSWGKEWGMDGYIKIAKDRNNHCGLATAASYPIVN
Procedure: as §1, §2

AβOs bound to neurons = experiment: AβOs bound to dendrites of hippocampal neurons treated with Aβ42 monomer (immunofluorescence, NU2/NU4); format: cell-based, rat
Procedure: Neurons were pre-treated with 3 μM NU-9 for 30 min, then treated with Aβ42 monomer for 24 hr. Cells were fixed with 3.7% formaldehyde and stained for AβOs (NU4, green), tau phosphorylated at Ser396 (pSer396, red) and mounted on slides before imaging.
Cells were fixed with 3.7% formaldehyde and stained for AβOs (NU4, green), tau phosphorylated at Thr205 (pThr205, red), and nuclei (DAPI, blue) and mounted on slides before imaging.
FIG. 3. Neurons were pre-treated with 3 μM NU-9 for 30 min, then treated with Aβ42 monomer for 30 min. Cells were fixed with 3.7% formaldehyde and stained for AβOs (NU2, green), β-II tubulin (TUBB3, red), and nuclei (DAPI, blue) and mounted on slides before imaging.
FIG. 4. E18 hippocampal neurons were cultured until 21 div and pre-treated with 3, 15, or 30 μM NU-9 for 30 minutes, followed by treatment with 500 nM Aβ42 for 30 minutes. Cells were fixed with 3.7% formaldehyde and stained for AβOs (NU2, green), […] (red) and nuclei (DAPI, blue), and mounted on slides before imaging at 63×.
NU-9 reduces the number of amyloid beta oligomers bound to neurites. Primary rat hippocampal neurons in cell culture were pre-treated with NU-9 for 30 minutes and then treated with amyloid beta 1-42 (Aβ) monomer. […] To characterize the dose-response effect of NU-9 on AβO formation, cells were pretreated with increasing doses of NU-9 (3, 15, and 30 μM), and then treated with Aβ for 30 minutes.
The decrease was 81% (p=0.0005). We further characterized the effect of NU-9, to narrow down potential candidate mechanisms for this effect.

5×FAD mice = experiment: Memory performance (novel object preference) in 5×FAD mice; format: in vivo
Procedure: FIG. 7. […] Preliminary results obtained in 11 month old mice treated with NU-9 for 4 weeks. Memory performance was evaluated before and after treatment with vehicle or NU-9.
In a preliminary experiment using a mouse model of Alzheimer's disease, NU-9 protected against memory loss. Twelve 5×FAD mice were bred on the slow-onset background. These animals received either vehicle control or NU-9 by gavage (20 mg/kg) daily for one month. In the control group, all animals failed the memory task, showing no preference for the novel object. […] (FIG. 7).

AβOs = experiment: Size of AβOs formed, molecular weight cutoff filters of 50 and 100 kDa; settings: 50 and 100 kDa cutoff filters; conflicting results from different blots
Source text: Another area of investigation this quarter was the effect of NU-9 on the formation of different sizes of AβOs. Evidence from animal models and human samples indicate that that some species of AβOs are more toxic than others, and specifically that higher molecular weight oligomers (>50 kDa) may include the most Aβ-relevant species^15-16. To investigate whether NU-9 reduced the formation of high-molecular weight AβOs, I carried out several experiments using molecular weight cutoff filters of 50 and 100 kDa. However, conflicting results were obtained from different blots. […] The use of sufficient bioreplicates and thorough mixing is important for these experiments. These experiments may be revisited in the future, or the question of the type of AβOs targeted could be addressed through proteomics.

acidic lysosomes = experiment: Lysotracker labelling of acidic compartments in hippocampal neurons; format: cell-based, rat; settings: 3 μM NU-9, 30-minute treatment
Procedure: FIG. 24. Mature E18 hippocampal neurons were treated 3 μM NU-9, and subsequently labelled with lysotracker. A) total immunofluorescence (integrated density), B) mean intensity, C) average size of acidic compartments, D) number of acidic compartments.

SMILES: C[C@H](Oc1cc(C(F)(F)F)cc(C(F)(F)F)c1)C1CC(=O)CC(=O)C1 [NU-9, (S)-5-(1-(3,5-bis(trifluoromethyl)phenoxy)ethyl)cyclohexane-1,3-dione]
- cathepsin L activity (production rate of 7-AMC from Z-FR-AMC) (cathepsin L): No effect
- intracellular cathepsin L activity [1]: not observed to modulate intracellular cathepsin L activity
- number of AβOs bound at dendrites (AβOs bound to neurons; 3 μM NU-9 pre-treatment 30 min, then Aβ42 monomer 24-26 hr): significantly decreased the number of AβOs bound at dendrites; also recorded: able to reduce AβO binding in neurons treated with Aβ monomer
- AβOs bound to neurons / formation of neuron-binding AβOs (AβOs bound to neurons; 3 μM NU-9 pre-treatment 30 min, then Aβ monomer 500 nM, 30 min): mitigated the formation of neuron-binding AβOs; also recorded: significantly reduced AβOs bound to neurons; also recorded: significantly reduced the formation of neuron binding AβOs
- dose-response of AβO suppression (visual analysis of images) (AβOs bound to neurons; 3, 15, or 30 μM NU-9 30 min, then 500 nM Aβ42 30 min): reduced more extensively at higher doses of NU-9; also recorded: More extensive suppression of AβOs was observed at higher concentrations of NU-9
- reduction in AβOs at synapses compared to treatment with Aβ monomer alone (AβOs bound to neurons; NU-9 3 μM, 30 min prior to Aβ monomer 500 nM, 30 min or 24 h): 81% and 55-80%
- number of AβOs bound to neurons (AβOs bound to neurons; NU-9 30 min pre-treatment, Aβ monomer 30 min or 24 h): reduces the number of bound amyloid beta oligomers; also recorded: dramatically decreased the number of Aβ oligomers (AβOs) bound to neurons; also recorded: marked reduction in AβOs at synapses; also recorded: effectively reduced the number of pathological species of AβOs
- motor and exploratory behavior (5×FAD mice; 5×FAD mice treated with vehicle or NU-9 for 4 weeks): normal motor and exploratory behavior
- protection against memory loss (preference for novel object) (5×FAD mice; 5×FAD mice, 11 month old, 20 mg/kg by gavage daily for one month, preliminary, 20 mg/kg): mitigated memory loss; also recorded: three of the four mice were protected from memory loss; also recorded: mitigates memory loss in older 5×FAD mice
- change in AβO size species (AβOs): reduction in 50-100 kDa species was observed, alongside an increase in small species (<50 kDa); also recorded: reduction in most species was observed, except in small species (<50 kDa)
- lysosome number, size, and acidity (acidic lysosomes): unchanged
